Assay results from US6939859B1, “Skin preparations for external use” (CCI Corp., priority 1999, dated 2005).

Assays:
interleukin-1α (IL-1α) [1] = assay: Effect of curing UVB disorder (IL-1α production, sample added after irradiation); assay type: cell-based; conditions: cornified cells of normal human neonate foreskin; 0.1 mM sample added after UVB 30 mJ/cm^2; 6 h culture; ELISA; means ± S.E.
Experimental: Cornified cells of normal human neonate foreskin scurfskin (freeze-preserved product, made by Kurabo K.K.) were adjusted to a cell density of 1.0×10^5 pieces/ml in a HuMedia-KG2 culture medium (made by Kurabo K.K.), sown in a unit volume of 2 ml in the component wells of a 6-hole plate, and cultured in an atmosphere of 5% CO2 at 37° C. for 24 hours. After completion of the culture, the culture medium was removed and the wells were each washed twice with 2 ml of Hanks buffer. The Hanks buffer alone was added in a unit volume of 1 ml to the wells. They were irradiated with a UVB (312nm) emitted from an ultraviolet lamp (made by Cosmo Bio K.K.) at a dosage of 30 mJ/cm”. The amount of the energy so emitted was measured by the use of an ultraviolet light intensity meter (made by Topcon K.K. and sold under the trademark designation of “UVR-2”) . . . . Some of these wells to which the Hanks buffer alone was added in a unit amount of 1 ml formed a control group and the remainders of them to which the Hanks buffer containing 0.1 mM of a given sample was added in a unit amount of 1 ml formed a sample-added group. The groups each consisted of 8 samples. The contents of the wells were cultured in an atmosphere of 5% CO2 at 37° C. for 6 hours.
(§1) The supernatant occurring at the end of 6 hours' culture was recovered and centrifuged at 1000 rpm for 5 minutes. The concentration of the IL-1α in the resultant supernatant was determined by the use of an ELISA kit made by ENDOGENE Corp. The significance was verified by the t-test and was applied to the groups yet to be treated.

interleukin-1α (IL-1α) [2] = assay: Effect of preventing UVB-induced cytokine (IL-1α production, sample present during irradiation); assay type: cell-based; conditions: cornified cells of normal human neonate foreskin; 0.1 mM sample during UVB 30 mJ/cm^2; 6 h culture; ELISA; means ± S.E.
Experimental: Cornified cells of normal human neonate foreskin scurfskin (freeze-preserved product, made by Kurabo K.K.) were adjusted to a cell density of 1.0×10^5 pieces/ml in a HuMedia-KG2 culture medium (made by Kurabo K.K.), sown in a unit volume of 2 ml in the component wells of a 6-hole plate, and cultured in an atmosphere of 5% CO2 at 37° C. for 24 hours. After completion of the culture, the culture medium was removed and the wells were each washed twice with 2 ml of Hanks buffer. Some of these wells to which the Hanks buffer alone was added in a unit amount of 1 ml formed a control group and the remainders of them to which the Hanks buffer containing 0.1 mM of a given sample was added in a unit amount of 1 ml formed a sample-added group. The groups each consisted of 8 samples. They were irradiated with a UVB (312 nm) emitted from an ultraviolet lamp (made by Cosmo Bio K.K.) at a dosage of 30 mJ/cm^2. The amount of the energy so emitted was measured by the use of an ultraviolet light intensity meter (made by Topcon K.K. and sold under the trademark designation of “UVR-2).
Immediately after completion of the irradiation, the wells were each washed twice with 2 m of Hanks buffer. With a HuMedia-KG2 culture medium added in a unit volume of 1 ml to the wells, the contents of the wells were cultured in an atmosphere of 5% CO2 at 37° C. for 6 hours.
as §1

V79 = assay: Test for confirming effect of promoting growth of cells, V79; assay type: cell-based, Chinese hamster; conditions: 100 μM chromanol glycoside, 72 h, neutral red, control = 100%
Experimental: (§2) V79 or NB1RGB was adjusted with a culture medium till the cell density reached 5×10^4 pieces/ml. Then, it was sown in a unit volume of 100 μl in the component wells of a 96-hole plate and cultured in an atmosphere of 5% CO2 at 37° C. for 72 hours. The culture medium used herein was the ordinary culture medium. Some of the wells effecting culture in the ordinary culture medium containing 100 μM of chromanol glycoside formed a chromanol glycoside-added group and the remainders of the wells effecting culture in the ordinary culture medium formed a control group. The groups each consisted of 80 samples. After the elapse of 72 hours from thence, a neutral red reagent (0.015%) was added in a unit volume of 100 μl to the wells and the resultant contents of the wells were cultured for 3 hours. After the 3 hours' culture, the culture medium was removed and a fixing solution (aqueous solution containing 0.5% of formaldehyde and 0.1% of calcium chloride) was added in a unit volume of 200 μl to the wells. The resultant contents of the wells were left fixing for one minute and then the fixing solution was removed. Subsequently, an extraction solution (aqueous solution containing 50% of ethanol and 1% of acetic acid) was added in a unit volume of 100 μl to the wells. The resultant contents of the wells were left standing for 20 minutes and measured for absorbency at 490 nm by the use of a micro-plate reader so as to allow computation of the number of cells. On the basis of the results of the measurement, the relative breeding ratios of the samples were determined, with the number of cells in the control groups taken as 100%.

[3] = system: diploid fibroblasts originating in the skin of a normal person (NB1RGB); assay: Test for confirming effect of preventing ultraviolet light (UVB) disorder, NB1RGB cells; assay type: cell-based, human; conditions: 1 mM chromanol glycoside, UVB 312 nm 60 mJ/cm^2, 72 h culture, neutral red, non-irradiated = 100%
Experimental: (§3) The fibroblasts originating in the lungs of Chinese hamster (V79) or the diploid fibroblasts originating in the skin-of a normal person (NB1RGB) were adjusted in a culture medium till the cell density reached 5.0×10^4 pieces/ml, sown at a rate of 100 μl in each of the wells on a 96-hole plate, and cultured in an atmosphere of 5% CO2 kept at 37° C. for 24 hours. As the culture medium, an E-MEM medium containing 10% bovine fetus serum (made by Nissui K.K.) For V79 or an α-MEM medium (made by SIGMA) for NB1RGB (hereinafter each referred to as “ordinary culture medium”).
(§4) After 24 hours' culture, the culture medium was removed and the individual wells were each washed twice with 200 μl of Hanks equilibrium salt buffer (Hanksbuffer). Some of these wells to which the Hanks buffer alone was added in a unit amount of 100 μl formed a control group and the remainders of them to which the Hanks buffer having a given chromanol glycoside dissolved till a final concentration of 1 mM was added in a unit amount of 100 μl formed a chromanol glycoside-added group. The groups each consisted of 46 samples. They were irradiated with a UVB (312 nm) emitted from an ultraviolet lamp (made by Cosmo Bio K.K.) at a dosage of 60 mJ/cm^2. The amount of the energy so emitted was measured by the use of an ultraviolet light intensity meter (made by Topcon K.K. and sold under the product code of “UVR-2”).
(§5) Immediately after completion of the irradiation, the wells were each washed twice with 200 μl. With the ordinary culture medium added in a unit volume of 100 μl to the wells, the contents of the wells were cultured for 72 hours. After the elapse of 72 hours from thence, the neutral red reagent (0.015%) was added in a unit volume of 100 μl to the wells and the resultant contents of the wells were cultured for 3 hours. After the elapse of 3 hours from thence, the culture medium was removed and a fixing solution (aqueous solution containing 0.5% of formaldehyde and 0.1% of calcium chloride) was added in a unit volume of 200 μl to the wells. The resultant contents of the wells were fixed for one minute and the fixing solution was removed from the wells. Then, an extracting solution (aqueous solution containing 50% of ethanol and 1% of acetic acid) were added in a unit volume of 100 μl to the wells. The resultant contents of the wells were left standing for 20 minutes and assayed with a micro-plate reader for the absorbency at 490 nm and visually examined to count the number of live cells. On the basis of the results of the assay, the relative survival ratios of the samples were determined, with the number of cells in the groups of wells not irradiated with the ultraviolet light taken as 100%.

[4] = system: fibroblasts originating in the lungs of Chinese hamster (V79); assay: Test for confirming effect of preventing ultraviolet light (UVB) disorder, V79 cells; assay type: cell-based; conditions: 1 mM chromanol glycoside, UVB 312 nm 60 mJ/cm^2, 72 h culture, neutral red, non-irradiated = 100%
Experimental: as §3, §4, §5

NB1RGB = assay: Test for confirming effect of promoting growth of cells, NB1RGB; assay type: cell-based, human; conditions: 100 μM chromanol glycoside, 72 h, neutral red, control = 100%
Experimental: as §2

[5] = system: pigment-sedimented skin of colored guinea pigs; assay: Improving effect relative to deposition of ultraviolet light-induced pigment; assay type: in vivo, guinea pig; conditions: 5% TMG solution in 50% ethanol, applied twice daily for three weeks, 5.6 μl/cm^2; brightness of skin (L value)
Experimental: Pigment-sedimented models wee produced from Al-1 type colored guinea pigs (female, 7-week old) divided into groups of 6 heads by shaving their backs and performing the irradiation of the skins of the backs with the ultraviolet light (light source: xenon lamp, dose: 2 MED×1 minute) once daily up to a total of three repetitions three to four days apart. After the models had been left standing for 10 days from thence, the specific portions of the pigment-sedimented parts were measured for the brightness of skin (L value) by the use of a calorimeter (former value). To the pigment-sedimented parts, a 5% TMG solution adjusted by using a 50% ethanol solution as a solvent was applied twice daily continuously for three weeks (amount applied:5.6 μl/cm^2). The guinea pigs which had undergone this application formed a TMG-applied group. The guinea pigs which had undergone application of a 50% ethanol solution in the place of the 5% TMG solution formed a control group. After three weeks from the start of the application, the skins of their backs were measured for the brightness with a calorimeter (latter value) to find the ΔL value(former value−lattervalue).

ICR type mice = assay: Test for acute toxicity; assay type: in vivo; conditions: oral, 500 mg/kg as TMG in 5% gum arabic, observation for one week
Experimental: The dermatological agent for external use of this invention was tested for acute toxicity so as to establish the safety thereof. ICR type mice4-5 weeks old were divided into groups each of three heads. The same TMG as mentioned above was suspended as a chromanol glycoside in a 5% gum arabic solution. The suspension was orally administered to the mice at a unit dosage of 500 mg/kg as reduced to TMG and the mice were kept under observation for one week. To the mice in the control group, a 5% gum arabic solution was orally administered in a unit volume of 0.3 ml. No fatality was found in any of the mice in the administration group.

| SMILES | Amount of IL-1α produced, Effect of curing (interleukin-1α (IL-1α) [1]) [µg/mL] | Amount of IL-1α produced, Effect of prevention (interleukin-1α (IL-1α) [2]) [µg/mL] | Breeding ratio (%) (V79) | Survival ratio (%) [3] [%] | Survival ratio (%) [4] [%] | Breeding ratio (%) (NB1RGB) | ΔL value [5] | Fatality (acute toxicity) (ICR type mice) |
| --- | --- | --- | --- | --- | --- | --- | --- | --- |
| O=C1O[C@H]([C@@H](O)CO)C(O)=C1O [Ascorbic acid] | 31.7 ± 5.0 | 16.5 ± 2.8 | – | – | – | – | – | – |
| N[C@@H](CCC(=O)N[C@@H](CS)C(=O)NCC(=O)O)C(=O)O [Glutathione] | 36.5 ± 1.6 | 7.2 ± 3.4 | – | – | – | – | – | – |
| Cc1c(C)c2c(c(C)c1O)CCC(C)(C[C@]1(CO)O[C@H](CO)[C@@H](O)[C@@H]1O)O2 (stereo partly drawn) [TMFR, 2-(β-D-Fructofuranosyl)methyl-2,5,7,8-tetramethyl chroman-6-ol] | – | – | 126 | 81 ± 12 | 89 ± 9 | 115 | – | – |
| Cc1c(C)c2c(c(C)c1O)CCC(C)(C[C@H]1O[C@H](CO)[C@@H](O)[C@H](O)[C@H]1O)O2 (stereo partly drawn) [TMG, 2-(α-D-Glucopyranosyl)methyl-2,5,7,8-tetramethyl chroman-6-ol] | 18.5 ± 4.2 | 14.5 ± 3.5 | 112 | 78 ± 16 | 75 ± 8 | 118 | 2.00 | No fatality |
| Cc1c(C)c2c(c(C)c1O)CCC(C)(C[C@@H]1O[C@H](CO)[C@H](O)[C@H](O)[C@H]1O)O2 (stereo partly drawn) [TMGA, 2-(β-D-Galactopyranosyl)methyl-2,5,7,8-tetramethyl chroman-6-ol] | – | – | 115 | 83 ± 14 | 83 ± 7 | 121 | – | – |
| Cc1c(C)c2c(c(C)c1O)CCC(C)(C[C@H]1O[C@H](CO)[C@@H](O)[C@H](O)[C@@H]1O)O2 (stereo partly drawn) [TMMA, 2-(α-D-Mannopyranosyl)methyl-2,5,7,8-tetramethyl chroman-6-ol] | – | – | 124 | 79 ± 8.7 | 96 ± 9 | 121 | – | – |
